Laboratory results as given in ChEMBL document CHEMBL3885861, “Open TG-GATES”.

Species on record: Rattus norvegicus
Assay: Open TG-GATES - Regimen: Single
Type: toxicity, organism-based, Sprague-Dawley
Parameters: regimen Single, gender Male, age 6 weeks
Conditions: in vivo, po, route gavage; for APTT / Bas / Eos / Fbg / Hb / Ht / Lym / MCH / MCHC / MCV / Mono / Neu / PT / Plat / RBC / Ret / WBC: tissue Blood; for KIDNEY_L / KIDNEY_R / KIDNEY_TOTAL: tissue Kidney; for LIVER: tissue Liver; for ALP / AST / BUN / CRE / Ca / Cl / DBIL / GLC / IP / LDH / Na / PL / RALB / TBIL / TC / TG / TP / gamma-GTP / ALT: tissue Plasma
[1] = 0 mg/kg, 3 h, dose level Control
[2] = 0 mg/kg, 6 h, dose level Control
[3] = 0 mg/kg, 9 h, dose level Control
[4] = 0 mg/kg, 24 h, dose level Control

## CC(=O)N1CCN(c2ccc(OCC3COC(Cn4ccnc4)(c4ccc(Cl)cc4Cl)O3)cc2)CC1 (stereo not given) [KETOCONAZOLE]
[1]
  TERMINAL_BW: 204 g
  APTT: 20.5 s
  Bas: 0%
  Eos: 0.8%
  Fbg: 282.4 mg/dL
  Hb: 12.8 g/dL
  Ht: 38.4%
  Lym: 76.4%
  MCH: 21.5 pg
  MCHC: 33.4%
  MCV: 64.4 fL
  Mono: 1.6%
  Neu: 19.8%
  PT: 16.9 s
  Plat: 117 x10_4/uL
  RBC: 596.2 x10_4/ul
  Ret: 8.8%
  WBC: 73.4 x10_2/uL
  KIDNEY_L: 0.9 g
  KIDNEY_R: 0.9 g
  KIDNEY_TOTAL: 1.9 g
  LIVER: 9.8 g
  ALP: 1856.6 IU/L
  AST: 76.2 IU/L
  BUN: 13.2 mg/dL
  CRE: 0.2 mg/dL
  Ca: 11 mg/dL
  Cl: 104.8 meq/L
  DBIL: 0.004 mg/dL
  GLC: 175.4 mg/dL
  IP: 7.9 mg/dL
  LDH: 167.6 IU/L
  Na: 141.8 meq/L
  PL: 135 mg/dL
  RALB: 2.9 g/dL
  TBIL: 0.016 mg/dL
  TC: 74.8 mg/dL
  TG: 63.2 mg/dL
  TP: 5.4 g/dL
  gamma-GTP: 1 IU/L
[2]
  TERMINAL_BW: 204.2 g
  APTT: 21.3 s
  Bas: 0%
  Eos: 0.8%
  Fbg: 293.6 mg/dL
  Hb: 13.2 g/dL
  Ht: 39.7%
  Lym: 83.2%
  MCH: 21.5 pg
  MCHC: 33.2%
  MCV: 64.7 fL
  Mono: 1.8%
  Neu: 13.4%
  PT: 16.9 s
  Plat: 122.1 x10_4/uL
  RBC: 613.4 x10_4/ul
  Ret: 8.4%
  WBC: 78.2 x10_2/uL
  KIDNEY_L: 1 g
  KIDNEY_R: 1 g
  KIDNEY_TOTAL: 1.9 g
  LIVER: 9.1 g
  ALP: 1433 IU/L
  AST: 71 IU/L
  BUN: 9.6 mg/dL
  CRE: 0.2 mg/dL
  Ca: 10.8 mg/dL
  Cl: 105.6 meq/L
  DBIL: 0 mg/dL
  GLC: 176.8 mg/dL
  IP: 8.4 mg/dL
  LDH: 197.4 IU/L
  Na: 141.2 meq/L
  PL: 124.2 mg/dL
  RALB: 2.9 g/dL
  TBIL: 0.022 mg/dL
  TC: 67.6 mg/dL
  TG: 47.6 mg/dL
  TP: 5.4 g/dL
  gamma-GTP: 1 IU/L
[3]
  TERMINAL_BW: 201.8 g
  APTT: 21.3 s
  Bas: 0%
  Eos: 1.2%
  Fbg: 294.4 mg/dL
  Hb: 13 g/dL
  Ht: 38.9%
  Lym: 75%
  MCH: 21.1 pg
  MCHC: 33.3%
  MCV: 63.3 fL
  Mono: 1.8%
  Neu: 21.4%
  PT: 16.4 s
  Plat: 138.7 x10_4/uL
  RBC: 615.6 x10_4/ul
  Ret: 7.7%
  WBC: 69.1 x10_2/uL
  KIDNEY_L: 1 g
  KIDNEY_R: 1 g
  KIDNEY_TOTAL: 1.9 g
  LIVER: 8.6 g
  ALP: 1580.4 IU/L
  AST: 75 IU/L
  BUN: 10.2 mg/dL
  CRE: 0.2 mg/dL
  Ca: 10.4 mg/dL
  Cl: 106 meq/L
  DBIL: 0.008 mg/dL
  GLC: 180.4 mg/dL
  IP: 9.5 mg/dL
  LDH: 227.2 IU/L
  Na: 142.2 meq/L
  PL: 125.6 mg/dL
  RALB: 3.1 g/dL
  TBIL: 0.026 mg/dL
  TC: 67.2 mg/dL
  TG: 52.6 mg/dL
  TP: 5.5 g/dL
  gamma-GTP: 1 IU/L
[4]
  TERMINAL_BW: 213.9 g
  APTT: 19.8 s
  Bas: 0%
  Eos: 0.8%
  Fbg: 307.2 mg/dL
  Hb: 13.3 g/dL
  Ht: 38.9%
  Lym: 77.6%
  MCH: 21.8 pg
  MCHC: 34.2%
  MCV: 63.9 fL
  Mono: 2%
  Neu: 19%
  PT: 16.7 s
  Plat: 117.4 x10_4/uL
  RBC: 609 x10_4/ul
  Ret: 7.5%
  WBC: 70.3 x10_2/uL
  KIDNEY_L: 1 g
  KIDNEY_R: 1 g
  KIDNEY_TOTAL: 2 g
  LIVER: 10.4 g
  ALP: 1980.8 IU/L
  ALT: 44 IU/L
  AST: 73.2 IU/L
  BUN: 16.4 mg/dL
  CRE: 0.2 mg/dL
  Ca: 10.7 mg/dL
  Cl: 107.2 meq/L
  DBIL: 0 mg/dL
  GLC: 185.6 mg/dL
  IP: 6.5 mg/dL
  LDH: 211.2 IU/L
  Na: 142.2 meq/L
  PL: 147 mg/dL
  RALB: 3.1 g/dL
  TBIL: 0.002 mg/dL
  TC: 76.6 mg/dL
  TG: 107.6 mg/dL
  TP: 5.6 g/dL
  gamma-GTP: 1.2 IU/L
10 mg/kg, 3 h, dose level Low
  TERMINAL_BW: 205.2 g
  APTT: 20.8 s
  Bas: 0%
  Eos: 0.8%
  Fbg: 286.4 mg/dL
  Hb: 12.9 g/dL
  Ht: 38.9%
  Lym: 79.2%
  MCH: 21.8 pg
  MCHC: 33.1%
  MCV: 66.1 fL
  Mono: 2%
  Neu: 17.2%
  PT: 16.9 s
  Plat: 122.3 x10_4/uL
  RBC: 590.2 x10_4/ul
  Ret: 8.5%
  WBC: 81.1 x10_2/uL
  KIDNEY_L: 1 g
  KIDNEY_R: 1 g
  KIDNEY_TOTAL: 2 g
  LIVER: 9.7 g
  ALP: 1809.4 IU/L
  ALT: 44.2 IU/L
  AST: 74.2 IU/L
  BUN: 12.6 mg/dL
  CRE: 0.2 mg/dL
  Ca: 10.8 mg/dL
  Cl: 105.4 meq/L
  DBIL: 0 mg/dL
  GLC: 183.6 mg/dL
  IP: 7.7 mg/dL
  LDH: 214.6 IU/L
  Na: 140.8 meq/L
  PL: 138.4 mg/dL
  RALB: 2.9 g/dL
  TBIL: 0.014 mg/dL
  TC: 76.6 mg/dL
  TG: 69.8 mg/dL
  TP: 5.3 g/dL
  gamma-GTP: 1.2 IU/L
10 mg/kg, 6 h, dose level Low
  TERMINAL_BW: 202.4 g
  APTT: 20.6 s
  Bas: 0%
  Eos: 0.6%
  Fbg: 294 mg/dL
  Hb: 13.2 g/dL
  Ht: 39.7%
  Lym: 78.8%
  MCH: 21 pg
  MCHC: 33.2%
  MCV: 63.2 fL
  Mono: 1.4%
  Neu: 18.2%
  PT: 16.5 s
  Plat: 134.3 x10_4/uL
  RBC: 628.6 x10_4/ul
  Ret: 8.4%
  WBC: 66.2 x10_2/uL
  KIDNEY_L: 0.9 g
  KIDNEY_R: 0.9 g
  KIDNEY_TOTAL: 1.8 g
  LIVER: 8.6 g
  ALP: 1453.2 IU/L
  AST: 72.2 IU/L
  BUN: 11 mg/dL
  CRE: 0.2 mg/dL
  Ca: 11 mg/dL
  Cl: 105.8 meq/L
  DBIL: 0.004 mg/dL
  GLC: 172.8 mg/dL
  IP: 9.2 mg/dL
  LDH: 238.6 IU/L
  Na: 142.2 meq/L
  PL: 146.6 mg/dL
  RALB: 3.1 g/dL
  TBIL: 0.028 mg/dL
  TC: 81.4 mg/dL
  TG: 57 mg/dL
  TP: 5.5 g/dL
  gamma-GTP: 1 IU/L
10 mg/kg, 9 h, dose level Low
  TERMINAL_BW: 202 g
  APTT: 21.2 s
  Bas: 0%
  Eos: 0.6%
  Fbg: 303 mg/dL
  Hb: 12.8 g/dL
  Ht: 38.6%
  Lym: 79.8%
  MCH: 20.9 pg
  MCHC: 33.3%
  MCV: 62.8 fL
  Mono: 2%
  Neu: 17%
  PT: 16.2 s
  Plat: 120.8 x10_4/uL
  RBC: 614.6 x10_4/ul
  Ret: 8.5%
  WBC: 64.8 x10_2/uL
  KIDNEY_L: 1 g
  KIDNEY_R: 1 g
  KIDNEY_TOTAL: 1.9 g
  LIVER: 8.9 g
  ALP: 1290.2 IU/L
  ALT: 33 IU/L
  AST: 63.8 IU/L
  BUN: 11.2 mg/dL
  CRE: 0.1 mg/dL
  Ca: 10.6 mg/dL
  Cl: 104.8 meq/L
  DBIL: 0 mg/dL
  GLC: 182.4 mg/dL
  IP: 9.8 mg/dL
  LDH: 211.4 IU/L
  Na: 140.6 meq/L
  PL: 137.8 mg/dL
  RALB: 3.1 g/dL
  TBIL: 0.018 mg/dL
  TC: 80.2 mg/dL
  TG: 52.8 mg/dL
  TP: 5.6 g/dL
  gamma-GTP: 1.2 IU/L
10 mg/kg, 24 h, dose level Low
  TERMINAL_BW: 212.3 g
  APTT: 20.9 s
  Bas: 0%
  Eos: 1%
  Fbg: 300 mg/dL
  Hb: 13 g/dL
  Ht: 38.5%
  Lym: 81%
  MCH: 21.3 pg
  MCV: 63.4 fL
  Mono: 1.8%
  Neu: 15.6%
  PT: 16.5 s
  Plat: 129.6 x10_4/uL
  RBC: 608 x10_4/ul
  Ret: 7.8%
  WBC: 74 x10_2/uL
  KIDNEY_L: 0.9 g
  KIDNEY_R: 0.9 g
  KIDNEY_TOTAL: 1.9 g
  LIVER: 10 g
  ALP: 1553.2 IU/L
  ALT: 44.2 IU/L
  AST: 71 IU/L
  BUN: 16 mg/dL
  CRE: 0.2 mg/dL
  Ca: 10.7 mg/dL
  Cl: 107.2 meq/L
  DBIL: 0 mg/dL
  GLC: 176.6 mg/dL
  IP: 7.1 mg/dL
  LDH: 209 IU/L
  Na: 141.6 meq/L
  PL: 140 mg/dL
  RALB: 3.1 g/dL
  TBIL: 0.006 mg/dL
  TC: 74 mg/dL
